Activity calls are given as the source filed them. The calls are words filed in the database; no cut-off is given here.
What was measured:
Beta-glucuronidase [1] = target: T1, Beta-glucuronidase (Escherichia coli (strain K12), UniProt P05804); assay: Inhibition of Escherichia coli GUS pre-incubated for 5 to 30 mins before 4-methylumbelliferone beta-D-glucuronide substrate addition at pH 5.5
[2] = Inhibition of Bacteroides fragilis GUS pre-incubated for 5 to 30 mins before 4-methylumbelliferone beta-D-glucuronide substrate addition at pH 6.7
Beta-glucuronidase [3] = target: T2, Beta-glucuronidase (Bos taurus, UniProt A3KMY8); assay: Inhibition of bovine GUS pre-incubated for 5 to 30 mins before 4-methylumbelliferone beta-D-glucuronide substrate addition at pH 6.7
T2 sequence (A3KMY8 whole entry): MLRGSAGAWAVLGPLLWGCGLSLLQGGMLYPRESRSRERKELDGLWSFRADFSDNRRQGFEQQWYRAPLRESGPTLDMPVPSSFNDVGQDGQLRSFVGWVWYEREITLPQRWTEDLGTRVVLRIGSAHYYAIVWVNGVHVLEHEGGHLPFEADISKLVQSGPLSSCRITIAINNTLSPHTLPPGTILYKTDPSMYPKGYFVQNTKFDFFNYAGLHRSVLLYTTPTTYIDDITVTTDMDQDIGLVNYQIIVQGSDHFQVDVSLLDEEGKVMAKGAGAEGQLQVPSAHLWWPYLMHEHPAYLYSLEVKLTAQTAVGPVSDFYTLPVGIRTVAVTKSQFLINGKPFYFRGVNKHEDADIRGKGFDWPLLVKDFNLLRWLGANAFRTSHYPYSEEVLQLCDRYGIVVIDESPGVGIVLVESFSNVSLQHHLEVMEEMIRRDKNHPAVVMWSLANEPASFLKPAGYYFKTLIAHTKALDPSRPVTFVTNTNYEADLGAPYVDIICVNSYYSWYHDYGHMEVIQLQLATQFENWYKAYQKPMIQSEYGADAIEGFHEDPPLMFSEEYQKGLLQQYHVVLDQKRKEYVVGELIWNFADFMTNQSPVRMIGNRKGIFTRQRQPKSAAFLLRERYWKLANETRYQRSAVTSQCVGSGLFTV

Beta-glucuronidase [4] = target: T1, Beta-glucuronidase; assay: Inhibition of Escherichia coli GUS pre-incubated for 5 to 30 mins before 4-methylumbelliferone beta-D-glucuronide substrate addition at pH 6.7
[5] = Inhibition of Ruminococcus gnavus GUS pre-incubated for 5 to 30 mins before 4-methylumbelliferone beta-D-glucuronide substrate addition at pH […]; parameters: species or system Mediterraneibacter gnavus
[6] = Inhibition of Bacteroides fragilis GUS pre-incubated for 5 to 30 mins before 4-methylumbelliferone beta-D-glucuronide substrate addition at pH 5.5
[7] = Inhibition of Clostridium perfringens GUS pre-incubated for 5 to 30 mins before 4-methylumbelliferone beta-D-glucuronide substrate addition at pH 6.7
[8] = Inhibition of Ruminococcus gnavus GUS pre-incubated for 5 to 30 mins before 4-methylumbelliferone beta-D-glucuronide substrate addition at pH 6.7; parameters: species or system Mediterraneibacter gnavus
[9] = Inhibition of Clostridium perfringens GUS pre-incubated for 5 to 30 mins before 4-methylumbelliferone beta-D-glucuronide substrate addition at pH 5.5
Beta-glucuronidase [10] = target: T2, Beta-glucuronidase; assay: Inhibition of bovine GUS pre-incubated for 5 to 30 mins before 4-methylumbelliferone beta-D-glucuronide substrate addition at pH 4.5
[11] = target: Beta-glucuronidase (Escherichia coli (strain K12)) (UniProt P05804); assay: Inhibition of Escherichia coli GUS pre-incubated for 5 to 30 mins before 4-methylumbelliferone beta-D-glucuronide substrate addition at pH 6.5 to 7.9
Bacteroides fragilis [12] = assay: Inhibition of Bacteroides fragilis GUS pre-incubated for 5 to 30 mins before 4-methylumbelliferone beta-D-glucuronide substrate addition at pH 6.5 to 7.9
[13] = test system: Mediterraneibacter gnavus; assay: Inhibition of Ruminococcus gnavus GUS pre-incubated for 5 to 30 mins before 4-methylumbelliferone beta-D-glucuronide substrate addition up to pH 6.9
[14] = target: Beta-glucuronidase (Escherichia coli (strain K12)) (UniProt P05804); assay: Inhibition of Escherichia coli GUS pre-incubated for 5 to 30 mins before 4-methylumbelliferone beta-D-glucuronide substrate addition at pH 3.6 to 6.9
Bacteroides fragilis [15] = assay: Inhibition of Bacteroides fragilis GUS pre-incubated for 5 to 30 mins before 4-methylumbelliferone beta-D-glucuronide substrate addition at pH 3.6 to 6.9
[16] = (§1) Selectivity index, ratio of Ki for inhibition of Ruminococcus gnavus GUS pre-incubated for 5 to 30 mins before 4-methylumbelliferone beta-D-glucuronide substrate addition at pH 5.5 to Ki for inhibition of Escherichia coli GUS pre-incubated for 5 to 30 mins before 4-methylumbelliferone beta-D-glucuronide substrate addition at pH 5.5
[17] = as §1, with “Bacteroides fragilis” for “Ruminococcus gnavus”, “Clostridium perfringens” for “Escherichia coli”

T1 sequence (P05804 whole entry): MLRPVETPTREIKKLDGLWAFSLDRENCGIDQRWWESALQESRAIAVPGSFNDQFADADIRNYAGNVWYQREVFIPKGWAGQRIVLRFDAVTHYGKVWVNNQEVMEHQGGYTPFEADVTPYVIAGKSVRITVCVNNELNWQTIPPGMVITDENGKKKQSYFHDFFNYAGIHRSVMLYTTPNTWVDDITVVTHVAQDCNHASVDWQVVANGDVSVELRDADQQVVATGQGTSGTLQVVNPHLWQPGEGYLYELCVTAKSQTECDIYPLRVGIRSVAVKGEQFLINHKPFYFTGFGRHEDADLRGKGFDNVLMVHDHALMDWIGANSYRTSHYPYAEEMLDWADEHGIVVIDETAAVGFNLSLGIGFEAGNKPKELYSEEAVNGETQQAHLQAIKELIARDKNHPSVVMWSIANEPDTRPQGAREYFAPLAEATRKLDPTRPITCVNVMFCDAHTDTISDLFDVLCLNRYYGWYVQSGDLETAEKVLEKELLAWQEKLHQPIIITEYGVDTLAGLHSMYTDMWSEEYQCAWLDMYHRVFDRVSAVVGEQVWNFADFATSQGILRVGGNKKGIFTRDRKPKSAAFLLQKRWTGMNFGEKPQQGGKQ
Beta-glucuronidase (Escherichia coli (strain K12)), sequence (P05804 whole entry, looked up): as the sequence (P05804 whole entry) above

CCC[C@@H]1NC[C@@H](O)[C@H](O)[C@H]1C(=O)O
Ki (Beta-glucuronidase [1]): 0.182 µM
Ki [2]: 3.66 µM
Ki (Beta-glucuronidase [3]): 5.87 µM
Ki (Beta-glucuronidase [4]): 0.0737 µM
Ki [5]: 94.6 µM
Ki [6]: 7.45 µM
Ki [7]: 0.179 µM
Ki [8]: 51.8 µM
Ki [9]: 0.425 µM
Ki (Beta-glucuronidase [10]): 32.2 µM

O=C(O)[C@H]1NC(=O)[C@H](O)[C@@H](O)[C@@H]1O
Ki (Beta-glucuronidase [1]): 0.232 µM
Ki [5]: 0.28 µM
Ki [6]: 0.069 µM
Ki [9]: 0.101 µM
Ki (Beta-glucuronidase [10]): 0.132 µM

O=C(O)[C@H]1CNC[C@@H](O)[C@@H]1O
inhibition [11]: Active
inhibition (Bacteroides fragilis [12]): Active
inhibition [13]: Active
inhibition [14]: Active
Ki (Beta-glucuronidase [1]): 0.034 µM
Ki [2]: 0.0036 µM
Ki (Beta-glucuronidase [3]): 0.0122 µM
Ki (Beta-glucuronidase [4]): 0.012 µM
Ki [5]: 0.05 µM
Ki [7]: 0.0161 µM
Ki [8]: 0.0039 µM
inhibition (Bacteroides fragilis [15]): Active
Ki [9]: 0.011 µM
Ki (Beta-glucuronidase [10]): 0.048 µM

O=C(O)[C@H]1NC[C@H](O)[C@@H](O)[C@@H]1O
Ki (Beta-glucuronidase [1]): 17.5 µM
Ki [5]: 21 µM
Ki [6]: 2.41 µM
Ki [9]: 12.3 µM
Ki (Beta-glucuronidase [10]): 21.5 µM

CCCN1C[C@@H](O)[C@H](O)[C@@H](C(=O)O)C1
Ratio Ki [16]: 700
Ki (Beta-glucuronidase [1]): 59.2 µM
Ki [2]: 15.5 µM
Ki (Beta-glucuronidase [3]): 61.2 µM
Ki (Beta-glucuronidase [4]): 41.3 µM
Ki [5]: 17.6 µM
Ratio Ki [17]: 190
Ki [6]: 38.7 µM
Ki [7]: 51.8 µM
Ki [8]: 5.45 µM
Ki [9]: 37.3 µM
Ki (Beta-glucuronidase [10]): 187 µM

O=C(O)[C@H]1OC(=O)[C@H](O)[C@@H](O)[C@@H]1O
Ki (Beta-glucuronidase [1]): 15.8 µM
Ki [5]: 40.8 µM
Ki [6]: 0.69 µM
Ki [9]: 4.51 µM
Ki (Beta-glucuronidase [10]): 4.87 µM
